Measurements reported in PubChem BioAssay AID588471 (The Scripps Research Institute Molecular Screening Center, 2011).

Tests used:
Assay in all cases: PubChem AID 588471; call rule not given here
[1] = biological target: Protein-arginine deiminase type-1 (Homo sapiens) (UniProt Q9ULC6); details: recombinant PAD1-4, BAEE citrulline colorimetric absorbance; PAD1
[2] = biological target: Protein-arginine deiminase type-4 (Homo sapiens) (UniProt Q9UM07); details: recombinant PAD1-4, BAEE citrulline colorimetric absorbance; PAD4
Sequence of Protein-arginine deiminase type-4 (Homo sapiens) (Q9UM07 whole entry, looked up): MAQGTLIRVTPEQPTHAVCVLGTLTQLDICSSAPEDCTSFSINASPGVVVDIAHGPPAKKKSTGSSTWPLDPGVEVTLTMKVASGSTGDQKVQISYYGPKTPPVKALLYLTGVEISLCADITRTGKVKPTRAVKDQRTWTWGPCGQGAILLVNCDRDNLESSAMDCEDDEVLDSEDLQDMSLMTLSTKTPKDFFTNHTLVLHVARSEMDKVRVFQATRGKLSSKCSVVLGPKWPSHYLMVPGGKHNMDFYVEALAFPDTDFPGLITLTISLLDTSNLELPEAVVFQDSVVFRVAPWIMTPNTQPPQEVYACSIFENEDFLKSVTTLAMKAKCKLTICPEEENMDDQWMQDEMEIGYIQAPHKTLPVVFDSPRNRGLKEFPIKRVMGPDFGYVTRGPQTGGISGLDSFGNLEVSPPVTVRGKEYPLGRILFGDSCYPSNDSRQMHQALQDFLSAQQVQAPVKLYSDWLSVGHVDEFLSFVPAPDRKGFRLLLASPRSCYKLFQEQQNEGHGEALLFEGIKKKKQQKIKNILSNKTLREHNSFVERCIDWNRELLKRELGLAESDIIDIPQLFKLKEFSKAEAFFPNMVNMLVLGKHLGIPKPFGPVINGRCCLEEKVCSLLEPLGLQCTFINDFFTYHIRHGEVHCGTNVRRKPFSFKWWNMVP

[3] = biological target: Protein-arginine deiminase type-3 (Homo sapiens) (UniProt Q9ULW8); details: recombinant PAD1-4, BAEE citrulline colorimetric absorbance; PAD3
Sequence of Protein-arginine deiminase type-3 (Homo sapiens) (Q9ULW8 whole entry, looked up): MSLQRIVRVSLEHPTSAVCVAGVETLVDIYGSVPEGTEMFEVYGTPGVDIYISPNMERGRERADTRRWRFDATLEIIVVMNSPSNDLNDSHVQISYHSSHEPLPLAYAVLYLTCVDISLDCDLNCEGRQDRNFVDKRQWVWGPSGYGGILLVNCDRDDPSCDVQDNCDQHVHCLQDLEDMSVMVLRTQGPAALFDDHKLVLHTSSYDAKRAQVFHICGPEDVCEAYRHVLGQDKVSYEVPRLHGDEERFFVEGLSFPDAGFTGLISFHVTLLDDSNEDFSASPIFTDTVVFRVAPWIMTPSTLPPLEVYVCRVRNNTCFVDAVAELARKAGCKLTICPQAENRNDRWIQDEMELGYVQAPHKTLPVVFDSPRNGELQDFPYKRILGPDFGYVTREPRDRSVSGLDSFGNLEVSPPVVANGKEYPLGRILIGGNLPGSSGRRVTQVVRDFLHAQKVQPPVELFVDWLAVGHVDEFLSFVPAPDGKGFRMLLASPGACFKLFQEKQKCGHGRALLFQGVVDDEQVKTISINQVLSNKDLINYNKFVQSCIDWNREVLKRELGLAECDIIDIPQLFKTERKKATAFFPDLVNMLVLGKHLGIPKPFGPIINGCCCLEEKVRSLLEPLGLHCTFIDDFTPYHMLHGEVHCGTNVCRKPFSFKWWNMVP

[4] = biological target: Protein-arginine deiminase type-2 (Homo sapiens) (UniProt Q9Y2J8); details: recombinant PAD1-4, BAEE citrulline colorimetric absorbance; PAD2
Sequence of Protein-arginine deiminase type-2 (Homo sapiens) (Q9Y2J8 whole entry, looked up): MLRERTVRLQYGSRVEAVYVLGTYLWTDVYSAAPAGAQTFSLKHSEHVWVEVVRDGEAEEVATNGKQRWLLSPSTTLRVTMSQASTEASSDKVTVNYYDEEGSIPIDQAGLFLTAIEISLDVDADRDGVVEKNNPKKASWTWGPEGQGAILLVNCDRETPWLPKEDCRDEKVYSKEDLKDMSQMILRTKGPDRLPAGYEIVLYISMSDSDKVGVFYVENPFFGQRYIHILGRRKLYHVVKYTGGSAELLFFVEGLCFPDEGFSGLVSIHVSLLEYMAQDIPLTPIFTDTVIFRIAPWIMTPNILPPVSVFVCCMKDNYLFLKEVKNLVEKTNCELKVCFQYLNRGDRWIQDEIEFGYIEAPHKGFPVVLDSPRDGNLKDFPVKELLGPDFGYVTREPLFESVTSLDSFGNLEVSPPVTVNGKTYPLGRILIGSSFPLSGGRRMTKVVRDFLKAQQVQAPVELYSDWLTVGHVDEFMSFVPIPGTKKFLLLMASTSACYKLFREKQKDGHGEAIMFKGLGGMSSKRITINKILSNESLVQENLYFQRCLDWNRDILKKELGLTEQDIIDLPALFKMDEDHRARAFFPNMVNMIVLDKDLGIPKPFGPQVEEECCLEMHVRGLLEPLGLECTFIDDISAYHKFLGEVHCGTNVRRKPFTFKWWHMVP

Measured: IC50

Sequence of Protein-arginine deiminase type-1 (Homo sapiens) (Q9ULC6 whole entry, looked up): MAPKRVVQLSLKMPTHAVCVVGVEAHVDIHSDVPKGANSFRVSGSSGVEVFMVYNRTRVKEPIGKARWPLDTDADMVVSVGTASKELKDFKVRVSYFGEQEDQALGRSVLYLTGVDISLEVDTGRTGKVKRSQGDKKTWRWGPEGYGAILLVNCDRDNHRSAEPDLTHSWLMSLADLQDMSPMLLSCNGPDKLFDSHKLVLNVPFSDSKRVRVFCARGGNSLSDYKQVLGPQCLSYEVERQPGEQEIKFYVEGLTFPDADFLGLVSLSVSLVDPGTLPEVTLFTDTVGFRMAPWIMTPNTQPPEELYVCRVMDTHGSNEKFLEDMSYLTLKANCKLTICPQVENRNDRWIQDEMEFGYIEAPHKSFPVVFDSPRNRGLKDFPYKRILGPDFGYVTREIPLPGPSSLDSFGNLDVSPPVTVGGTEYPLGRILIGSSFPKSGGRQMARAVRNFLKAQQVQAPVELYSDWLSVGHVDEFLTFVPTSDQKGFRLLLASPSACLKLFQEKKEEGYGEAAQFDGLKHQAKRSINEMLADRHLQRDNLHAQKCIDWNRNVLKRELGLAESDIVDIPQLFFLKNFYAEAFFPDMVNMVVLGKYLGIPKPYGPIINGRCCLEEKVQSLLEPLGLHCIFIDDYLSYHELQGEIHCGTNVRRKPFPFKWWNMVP

NC1=CC(=O)c2ccc(-c3ccccn3)nc2C1=O
active: [1] 950 nM | [2] 640 nM | [3] 130 nM | [4] 320 nM
